Legend:
[1] = system: STAT6 protein phosphorylation in TF-1 cells; assay: STAT6 phosphorylation inhibition in vitro in TF-1 cells with IL-4; type: cell-based; details: Homo sapiens, IL-4 20 ng/mL, 1 hour, Western blot densitometry
Procedure: Assay of STAT6 Phosphorylation Inhibition In Vitro
(§1) The activity of the compounds of the invention was tested using in vitro assay described below.
Tested compounds were dissolved in 100% DMSO, and obtained stock solutions were serially in OptiMEM medium (Reduced Serum Medium-Thermo Fisher Scientific). TF-1 cells (DSMZ no.: ACC 334) in culture medium (80% RPMI 1640+20% FBS) in the presence of IL-4 at 20 ng/mL were sieved on 12-well plates at 900 μl/well, 700 thousands of cells/well. To a well of the 12-well plate 100 μL of obtained 10× solution of the compounds were added. Cells on 12-well plates were incubated with tested compounds for 1 hour at 37° C., 5% CO2. Subsequently the cells were washed with PBS, lysed in RIPA buffer added with EDTA, proteases and phosphatases inhibitors, and incubated for 5 min on ice. Protein concentration was determined using Pierce BCA Protein Assay Kit (Thermo Fisher Scientific). Protein lysates were separated by electrophoresis (SDS-PAGE) on 8% polyacrylamide gels, then wet-transferred on nitrocellulose membrane and tested proteins were detected in accordance with the instructions of antibody manufacturer.
On the basis of the measurement of chemoluminescence intensity densitometric analysis was performed, results obtained for the cells treated with tested compounds at various concentrations were compared with those obtained for control cells, and IC50 values were determined.
These values were determined with Graph Pad software v. 5.03, by fitting points of the curve using non-linear regression method. Each compound was tested in at least 3 repetitions.

[2] = system: INFγ secreted by lymphocytes T; assay: Inhibition of INFγ production by lymphocytes T in vitro; type: cell-based; details: Lymphocyte, 48 hours, human CD4+ lymphocytes T; for inhibition at 0.01 µM: 10 nM; for inhibition at 0.1 µM: 100 nM; for inhibition at 1 µM: 1000 nM
Procedure: Assay for Inhibition of TNFα and INFγ Production by Lymphocytes T In Vitro
as §1
Tested compounds were dissolved in 100% DMSO, and obtained stock solutions were serially diluted with OptiMEM medium (Reduced Serum Medium-Thermo Fisher Scientific). Lymhocytes were isolated from leukocyte top coat layer obtained from human peripheral blood. Isolation of peripheral blood mononuclear cells was performed using Ficoll-Paque+Leucosept gradient method, with lymphocytes isolation using CD4+ T Cell Isolation Kit, and activation using T Cell Activation/Expansion Kit (Miltenyi Biotec). Isolated cells in culture medium (90% RPMI 1640+10% FBS) were sived on 12-well plates at 450 μL/well, 300 thousands/well, and 50 μL of prepared 10× stock solutions of tested compounds were added. After 48 hours supernatant was collected for determination of the level of secreted cytokines. Before determination, cells were centrifuged at 1000 g, 10 min. Determination was performed with flow cytometer FACS Calibur using LEGENDplex Human Th cytokine kit. Results are presented in Table 3 as a percentage of inhibition of TNFα i INFγ cytokines secreted by lymphocytes T with reference to control cells.

| IC50 [1] | Structure (SMILES) | inhibition at 0.01 µM [2] | inhibition at 0.1 µM [2] | inhibition at 1 µM [2] |
| --- | --- | --- | --- | --- |
| 442 nM | COc1ccc(-c2cc3ncc(C(N)=O)c(N[C@@H]4CCN(c5ccc(C#N)nn5)CC4(C)C)n3n2)cn1 [Example 4, (R)-7-((1-(6-Cyanopyridazin-3-yl)-3,3-dimethylpiperidin-4-yl)amino)-2-(6-methoxy-pyridin-3-yl)pyrazolo[1,5-a]pyrimidine-6-carboxamide] | 80.9% | 86.5% | 95.6% |
| 116 nM | CC1(C)CN(c2ccc(C#N)nn2)CC[C@H]1Nc1c(C(N)=O)cnc2cc(-c3ccc(N4CCOCC4)nc3)nn12 [Example 7, (R)-7-((1-(6-Cyanopyridazin-3-yl)-3,3-dimethylpiperidin-4-yl)amino)-2-(6-morpholinopyridin-3-yl)pyrazolo[1,5-a]pyrimidine-6-carboxamide] | 73.6% | 74.6% | 98.1% |
| 114 nM | COc1cccc(-c2cc3ncc(C(N)=O)c(N[C@@H]4CCN(c5ccc(C#N)nn5)CC4(C)C)n3n2)n1 [Example 11, (R)-7-((1-(6-Cyanopyridazin-3-yl)-3,3-dimethylpiperidin-4-yl)amino)-2-(6-methoxy-pyridin-2-yl)pyrazolo[1,5-a]pyrimidine-6-carboxamide] | 88.8% | 93.5% | 81.4% |
| 150 nM | Cc1cc(-c2cc3ncc(C(N)=O)c(N[C@@H]4CCN(c5ccc(C#N)nn5)CC4(C)C)n3n2)ccn1 [Example 12, (R)-7-((1-(6-Cyanopyridazin-3-yl)-3,3-dimethylpiperidin-4-yl)amino)-2-(2-methyl-pyridin-4-yl)pyrazolo[1,5-a]pyrimidine-6-carboxamide] | 86.2% | 88% | 93% |
